# Measurements published in patent publication US20260174829A1, “METHODS OF REDUCING TYPE 2 CYTOKINE-MEDIATED INFLAMMATION USING NEUROMEDIN PEPTIDES” (Rutgers, The State University of New Jersey, priority 2018, published 2026).
# Columns and labels:
# [1] = test system: Nippostrongylus brasiliensis (Nb)-infected mice; experiment: Nmb treatment (i.t.) of Nippostrongylus brasiliensis-infected mice; format: in vivo, mouse
# Protocol: FIGS. 6A-6E. […] (A), Nb-infected mice were treated with PBS or Nmb (i.t.) and ILC2s in the BAL were quantified. (B) Expression of IL-5 and IL-13 in the lungs of PBS or Nmb-treated mice was determined on day 7 post-Nb by Real-time PCR. (C) Eosinophils in the BAL were quantified and (D) worm burdens were determined on day 7 post-Nb infection. ILC2s were sort-purified from the lungs of control or baso-dep mice on day 7 post-Nb and cultured (O/N) with IL-2 and IL-7 in the presence or absence of Nmb and (E) IL-5 and IL-13 levels in culture supernatants were determined by ELISA. P values were determined by two-tailed Student's t-tests.
# Methods for maintenance, recovery, infection and isolation of N. brasiliensis larvae were performed as previously described (Camberis et al., 2003, Animal model of Nippostrongylus brasiliensis and Heligmosomoides polygyrus. Current protocols in immunology/edited by John E. Coligan . . . [et al.] Chapter 19:Unit 19.12.). Mice were infected with ˜500 N. brasiliensis larvae by subcutaneous injection. For basophil depletion, WT and basophil-depleted mice were treated with 0.375 μg of diphtheria toxin i.p. every other day; mice were sacrificed 3-7 days post-N. brasiliensis infection. For neuromedin B treatment, mice were anesthetized and treated with 10 μg of neuromedin B (MP Biomedicals) dissolved in 50 μL of PBS administered via intratracheal instillation.
# For BAL collection after necropsy, 5 mL of PBS were injected and aspirated from the trachea of each mouse, after collection the volume of BAL collected was recorded. Following BAL collection, lungs were collected at necropsy and single-cell suspensions for flow cytometric analysis were prepared as previously described (Jungblut et al., J Vis Exp 29:1266, 2009). Briefly, pulmonary tissue was minced and incubated in HBSS containing 2.5% of FBS, collagenase D (2 mg/mL, Roche) and DNAse I (80 U/mL, Roche) for 30 min at 37° C. Cell suspensions were filtered through a […] filter and analyzed by flow cytometry. Additionally sections of pulmonary tissue were collected for real-time PCR and histological analysis.
# Cells were stained with monoclonal anti-mouse fluorescently conjugated antibodies: B220 (RA3-6B2), c-Kit (ACK2), CD3 (145-2C11), CD4 (GK1.5), CD5 (53-73), CD19 (1D3), NK1.1 (PK136), CD11b (MI/70), CD11c (N418), IgE (23G3), FcRI (MAR-1), CD49b (DX5), CD45 (30-F11), CD90 (5E10), CD127 (A7R34), F4/80 (BM8), γδTCR (eBioGL3), Siglec-F (E50-2440), LγδG (1A8), LγδC (AL-21), IL-5 (TRFK5), IL-13 (eBiol3A), Ter-119 (TER-119) from eBioscience or BD Biosciences. For intracellular staining, cells were incubated for 5 hours at 37° C. with Leukocyte Activation Cocktail, with BD GolgiPlug™ (BD Biosciences) following manufacturer's instructions. Basophils were analyzed as CD45^+CD3^−CD19^−FceR1^+CD49b^+. Eosinophils were analyzed as CD45^+CD11b^+Siglec-F^+CD11c^−. Neutrophils were analyzed as Live CD45^+CD11b^+LγδG^+. ILC2s were analyzed as CD45^+CD3^−CD19^−CD11b^−CD11c^−NK1.1^−B220^−CD5^−Ter-119^− γδ TCR^−CD90^+CD127^+IL-5^+IL-13^+. Samples were acquired on a BD Fortessa flow cytometer (BD Biosciences) and analyzed using Flowlo software (v10.0.5, Tree Star). Cell sorting was performed using a FACSAriaII (BD Bioscience).
# RNA from sections of lung tissue was isolated by homogenization in TRIzol (Invitrogen) followed by phenol-chloroform extraction and isopropanol precipitation. cDNA was generated per standard protocol with Superscript reverse transcriptase (Invitrogen) and used as input for real-time PCR. Real-time data were analyzed using the ΔΔCT method using SYBR Green chemistry (Applied Biosystems) with β-actin serving as the endogenous housekeeping gene. All reactions were run on an ABI 7500 Fast Real-Time PCR System (Applied Biosystems). Samples were normalized to naïve controls.
# NMBR expression by ILC2s = experiment: NMBR expression by cultured lung ILC2s, flow cytometry; format: cell-based, mouse; conditions: ILC2s day 7 post-Nb, survival and/or activating cytokines, day 4 post-culture
# From the text: FIG. 9. Basophils regulate NMBR expression. ILC2s were sort-purified from the lung of Nb-infected mice (day 7) and stimulated with survival cytokines (IL-7 and IL-2) and also with activated basophils, IL-4 or IL-33 overnight. NMBR expression was monitored by flow cytometric analysis post-culture. Data are presented as […] mean fluorescent intensity (GMFI). Statistical comparisons were done using a Student's t-test.
# FIG. 14. Prostaglandin E2 upregulates expression of NMBR on lymphocytes. Lung ILC2s were sort-purified from the lungs of mice on day 7 post-Nb and cultured with a combination of survival cytokines (IL-2 and IL-7) and/or activating cytokines (IL-25 and IL-33). In addition, cultures were treated with NMB or prostaglandin E2 (PGE2) and the expression of NMBR was measured by flow cytometric analysis on day 4 post-culture. Statistical analysis was performed using a student's t-test. Negative NMBR staining as determined by an isotype control antibody is also shown (Isot).
# NMBR expression by lung ILC2s was reduced when basophils are depleted following an Nb infection. To determine whether basophils directly mediate expression of NMBR or whether they operate through intermediate pathways, ILC2s were sort-purified from the lungs of Nb-infected mice (day 7) and cultured with the survival cytokines IL-2 and IL-7. Additionally, the ILC2s were cultured with activated basophils, IL-4, or IL-33 overnight. NMBR expression was subsequently monitored by flow cytometric analysis post-culture.
# To better determine the mechanisms through which basophils regulate expression of NMBR on lymphocytes, ILC2s were cultured with a combination of survival and activating cytokines in the presence or absence of NMB or prostaglandin E2 (PGE2).
# [2] = Nmb i.t. vs PBS, day 7, Real-time PCR
# [3] = Nmb i.t. vs PBS, day 7 post-infection
substance,measurement,setting,value
H2N-GNLWATGHFM-amide [Nmb],IL-5 expression in the lungs,[1]; [2],reduced
same,IL-13 expression in the lungs,[1]; [2],reduced
same,ILC2 responses (ILC2s in the BAL),[1]; [3],reduced
same,eosinophilia (eosinophils in the BAL),[1]; [3],reduced
same,infection-induced neutrophilia,[1]; [3],no effect
same,worm clearance (worm burdens),"[1]; Nmb i.t. vs control mice, day 7 post-infection",failed to clear worms as efficiently as control mice
same,NMBR expression by ILC2s,NMBR expression by ILC2s,failed to upregulate
